Values of other authors, collected in US9840652B2, “Water-based drilling fluid with cyclodextrin shale stabilizer” (Halliburton Energy Services, Inc., priority 2012, dated 2017).

How the values were obtained:
[1] = system: Cyprinus carpio (common carp)
[2] = system: Daphnia magna
[3] = system: desmodesmus subspicatus

In the case of `OC[C@H]1O[C@@H]2O[C@H]3[C@H](O)[C@@H](O)[C@@H](O[C@H]4[C@H](O)[C@@H](O)[C@@H](O[C@H]5[C@H](O)[C@@H](O)[C@@H](O[C@H]6[C@H](O)[C@@H](O)[C@@H](O[C@H]7[C@H](O)[C@@H](O)[C@@H](O[C@H]8[C@H](O)[C@@H](O)[C@@H](O[C@H]1[C@H](O)[C@H]2O)O[C@@H]8CO)O[C@@H]7CO)O[C@@H]6CO)O[C@@H]5CO)O[C@@H]4CO)O[C@@H]3CO` [β-cyclodextrin], the “96-hr LC50” value [1] is listed as 7561 µg/mL, the “48-hr EC50” value [2] is listed as greater than 100 µg/mL and the “72-hr density EC50” value [3] is listed as greater than 100 µg/mL.
